Measurements taken from patent publication US8835134B2, “Cycloastragenol monoglucoside, preparation, pharmaceutical composition and application thereof” (Tianjin Institute of Pharmaceutical Research, priority 2007, dated 2014).

Test system: anesthetized open-chest dogs
Test: Hemodynamics of anesthetized open-chest dogs, intravenous infusion
Assay type: in vivo, mongrel dogs
Settings: 0.3 mg/kg iv
Experimental: The animals were anesthetized by intravenous injection of 30 mg/kg sodium pentobarbital, tracheally intubated, and mechanically ventilated with positive air pressure. Left thoracotomy was performed through the fourth intercostal space and the heart was suspended in a pericardial cradle, the aortic root was isolated and a probe of blood flow meter (12 or 14 mm in diameter) was fixed to measure the aortic blood flow as a representation of cardiac output (CO), the circumflex branch of left coronary artery was isolated and a probe of blood flow meter (2 or 2.5 mm in diameter) was fixed to measure the coronary blood flow (CBF). A polyethylene catheter filled with heparin physiological saline was inserted through cardiac apex into the left ventricle to measure the left ventricular pressure (LVP) and left ventricular end-diastolic pressure (LVEDP), Peak positive and peak negative first derivatives of the LVP (+ LVdp/dt and − LVdp/dt) were calculated with the Acknowledge software. The systolic blood pressure (SBP), diastolic blood pressure (DBP) and mean arterial pressure (MAP) were measured by polyethylene catheter via the femoral artery, ECG □ was measured by a AC-601G ECG amplifier. The above-mentioned analog signal was input into a data acquisition workstation (MP100, BIOPAC Systems, USA) to a computer running Acknowledge (version 3.7.1).
After surgery, various indexes before administration were recorded until the indexes were stable, and then intravenous infusion administration was conducted. Thirty dogs were divided into five groups (six dogs in each group), the experiment groups were given 0.15, 0.3, 0.6 mg/kg of ASP-[…] respectively, the normal control group was given 1 ml/kg of solvent, and the positive control group was given 0.3 mg/kg of astragaloside IV. The delivery volumes were 15 ml for each dog was and the delivery velocity was 1 ml/min. The indexes were recorded at 5, 10, 15, 20, 30, 45, 60, 90 and 120 mins after drug administration. At the end of experiment, the hearts were excised and weighted. The myocardial blood flow for per hectogram (CF), coronary resistance (CR), cardiac index (CI), left ventricular work (LVW) and total peripheral resistance (TPR) were calculated according to the following formulae: CF=CBF×[…]/heart weight CR=MAP/CF CI=CO/0.11×(body weight)^2/3 LVW=CO×(MAP−5)×1.052×0.0136 TPR=MAP×79.92/CO
Data are expressed as mean±SD ( x±s), the paired t-test was used to compare the significance between before and after administration, the unpaired t-test was adopted for comparison between groups.

For `CC(C)(O)[C@@H]1CC[C@](C)([C@H]2[C@@H](O)C[C@@]3(C)[C@@H]4C[C@H](O[C@@H]5O[C@H](CO)[C@@H](O)[C@H](O)[C@H]5O)[C@H]5C(C)(C)[C@@H](O[C@@H]6OC[C@@H](O)[C@H](O)[C@H]6O)CC[C@@]56C[C@@]46CC[C@]23C)O1` [astragaloside IV, reference compound], the “+LVdp/dtmax” value was “significantly increased”, the “CO, CI and TPR” value was “no significant effect” and the LVEDP was “significantly decreased”. For the same molecule, the “LVSP, LVW and −LVdp/dtmax” value was “no significant change”, the CF (5 min after administration) was 57.2 ± 14.0 ml/min/100 g and the “CF change vs before administration” value (5 min after administration) was “(0.2 ± 3.5) ml/min/100 g”. For the same molecule, the CI (5 min after administration) was 2.20 ± 0.59 L/min/m^2, the “CI change vs before administration” value (5 min after administration) was “(0.06 ± 0.10) L/min/m^2” and the CO (5 min after administration) was 1.23 ± 0.36 L/min. For the same molecule, the “CO change vs before administration” value (5 min after administration) was “(0.03 ± 0.05) L/min”, the CR (5 min after administration) was 1.36 ± 0.47 mmHg/ml/min/100 g and the “CR change vs before administration” value (5 min after administration) was “(−0.05 ± 0.07) mmHg/ml/min/100 g”. The LVEDP (5 min after administration) was 1.6 ± 1.4 mmHg, the “LVEDP change vs before administration” value (5 min after administration) was “(−0.80 ± 0.81) mmHg” and the LVP (5 min after administration) was 104 ± 10 mmHg. For the same molecule, the “LVP change vs before administration” value (5 min after administration) was “(1.1 ± 6.5) mmHg”, the LVW (5 min after administration) was 1.22 ± 0.47 kg · m and the “LVW change vs before administration” value (5 min after administration) was “(0.01 ± 0.05) kg · m”. The TPR (5 min after administration) was 5046 ± 1572 dyn · s/cm^5, the “TPR change vs before administration” value (5 min after administration) was “(−178 ± 384) dyn · s/cm^5” and the dp/dt (5 min after administration) was 1082 ± 176 mmHg/s. For the same molecule, the “dp/dt change vs before administration” value (5 min after administration) was “(27 ± 75) mmHg/s”, the “−dp/dt” value (5 min after administration) was −878 ± 179 mmHg/s and the “−dp/dt change vs before administration” value (5 min after administration) was “(−43 ± 104) mmHg/s”. For the same molecule, the CF (10 min after administration) was 59.0 ± 20.5 ml/min/100 g, the “CF change vs before administration” value (10 min after administration) was “(2.0 ± 6.5) ml/min/100 g” and the CI (10 min after administration) was 2.21 ± 0.52 L/min/m^2. The “CI change vs before administration” value (10 min after administration) was “(0.07 ± 0.08) L/min/m^2”, the CO (10 min after administration) was 1.24 ± 0.32 L/min and the “CO change vs before administration” value (10 min after administration) was “(0.04 ± 0.05) L/min”. The CR (10 min after administration) was 1.39 ± 0.45 mmHg/ml/min/100 g, the “CR change vs before administration” value (10 min after administration) was “(−0.01 ± 0.12) mmHg/ml/min/100 g” and the LVEDP (10 min after administration) was 1.7 ± 1.3 mmHg. The “LVEDP change vs before administration” value (10 min after administration) was “(−0.73 ± 0.54) mmHg”, the LVP (10 min after administration) was 105 ± 10 mmHg and the “LVP change vs before administration” value (10 min after administration) was “(2.5 ± 11.7) mmHg”. For the same molecule, the LVW (10 min after administration) was 1.26 ± 0.39 kg · m, the “LVW change vs before administration” value (10 min after administration) was “(0.05 ± 0.13) kg · m” and the TPR (10 min after administration) was 5162 ± 1495 dyn · s/cm^5. The “TPR change vs before administration” value (10 min after administration) was “(−62 ± 517) dyn · s/cm^5”, the dp/dt (10 min after administration) was 1141 ± 136 mmHg/s and the “dp/dt change vs before administration” value (10 min after administration) was “(86 ± 61) mmHg/s”. The “−dp/dt” value (10 min after administration) was −882 ± 163 mmHg/s, the “−dp/dt change vs before administration” value (10 min after administration) was “(−46 ± 118) mmHg/s” and the CF (15 min after administration) was 57.0 ± 22.3 ml/min/100 g. The “CF change vs before administration” value (15 min after administration) was “(0.0 ± 7.2) ml/min/100 g”, the CI (15 min after administration) was 2.16 ± 0.51 L/min/m^2 and the “CI change vs before administration” value (15 min after administration) was “(0.02 ± 0.07) L/min/m^2”. For the same molecule, the CO (15 min after administration) was 1.21 ± 0.30 L/min, the “CO change vs before administration” value (15 min after administration) was “(0.01 ± 0.04) L/min” and the CR (15 min after administration) was 1.46 ± 0.50 mmHg/ml/min/100 g. The “CR change vs before administration” value (15 min after administration) was “(0.06 ± 0.15) mmHg/ml/min/100 g”, the LVEDP (15 min after administration) was 1.0 ± 1.2 mmHg and the “LVEDP change vs before administration” value (15 min after administration) was “(−1.40 ± 0.54) mmHg”. For the same molecule, the LVP (15 min after administration) was 103 ± 12 mmHg, the “LVP change vs before administration” value (15 min after administration) was “(−0.3 ± 12.2) mmHg” and the LVW (15 min after administration) was 1.22 ± 0.35 kg · m. The “LVW change vs before administration” value (15 min after administration) was “(0.01 ± 0.16) kg · m”, the TPR (15 min after administration) was 5319 ± 1695 dyn · s/cm^5 and the “TPR change vs before administration” value (15 min after administration) was “(95 ± 662) dyn · s/cm^5”. The dp/dt (15 min after administration) was 1167 ± 157 mmHg/s, the “dp/dt change vs before administration” value (15 min after administration) was “(112 ± 31) mmHg/s” and the “−dp/dt” value (15 min after administration) was −847 ± 141 mmHg/s. The “−dp/dt change vs before administration” value (15 min after administration) was “(−12 ± 124) mmHg/s”, the CF (20 min after administration) was 59.1 ± 21.2 ml/min/100 g and the “CF change vs before administration” value (20 min after administration) was “(2.1 ± 7.3) ml/min/100 g”. The CI (20 min after administration) was 2.15 ± 0.44 L/min/m^2, the “CI change vs before administration” value (20 min after administration) was “(0.00 ± 0.10) L/min/m^2” and the CO (20 min after administration) was 1.20 ± 0.27 L/min. The “CO change vs before administration” value (20 min after administration) was “(0.00 ± 0.06) L/min”, the CR (20 min after administration) was 1.37 ± 0.42 mmHg/ml/min/100 g and the “CR change vs before administration” value (20 min after administration) was “(−0.03 ± 0.16) mmHg/ml/min/100 g”. The LVEDP (20 min after administration) was 1.0 ± 1.1 mmHg, the “LVEDP change vs before administration” value (20 min after administration) was “(−1.46 ± 0.68) mmHg” and the LVP (20 min after administration) was 104 ± 11 mmHg. For the same molecule, the “LVP change vs before administration” value (20 min after administration) was “(1.2 ± 16.2) mmHg”, the LVW (20 min after administration) was 1.2 ± 0.31 kg · m and the “LVW change vs before administration” value (20 min after administration) was “(−0.01 ± 0.22) kg · m”. For the same molecule, the TPR (20 min after administration) was 5203 ± 1464 dyn · s/cm^5, the “TPR change vs before administration” value (20 min after administration) was “(−21 ± 735) dyn · s/cm^5” and the dp/dt (20 min after administration) was 1165 ± 112 mmHg/s. The “dp/dt change vs before administration” value (20 min after administration) was “(110 ± 67) mmHg/s”, the “−dp/dt” value (20 min after administration) was −875 ± 105 mmHg/s and the “−dp/dt change vs before administration” value (20 min after administration) was “(−39 ± 142) mmHg/s”. The CF (30 min after administration) was 57.8 ± 16.6 ml/min/100 g, the “CF change vs before administration” value (30 min after administration) was “(0.8 ± 3.2) ml/min/100 g” and the CI (30 min after administration) was 2.08 ± 0.48 L/min/m^2. The “CI change vs before administration” value (30 min after administration) was “(−0.07 ± 0.17 ^ L/min/m^2”, the CO (30 min after administration) was 1.16 ± 0.29 L/min and the “CO change vs before administration” value (30 min after administration) was “(−0.04 ± 0.09) L/min”. The CR (30 min after administration) was 1.41 ± 0.47 mmHg/ml/min/100 g, the “CR change vs before administration” value (30 min after administration) was “(0.00 ± 0.13) mmHg/ml/min/100 g” and the LVEDP (30 min after administration) was 1.0 ± 1.4 mmHg. The “LVEDP change vs before administration” value (30 min after administration) was “(−1.44 ± 0.90) mmHg”, the LVP (30 min after administration) was 102 ± 11 mmHg and the “LVP change vs before administration” value (30 min after administration) was “(−0.7 ± 13.7) mmHg”. The LVW (30 min after administration) was 1.19 ± 0.40 kg · m and the “LVW change vs before administration” value (30 min after administration) was “(−0.02 ± 0.15) kg · m”.
